Source: ChEMBL document CHEMBL1201862, “PubChem BioAssay data set” (2004)
Structures can show the parent of a compound that is named as a salt. Calls of active or inactive are those of the source.

How the values were obtained:
[1] = Luminescence Cell-Based Dose Confirmation HTS to Identify Activators of 5'UTR Stem-Loop Driven Alpha-Synuclein mRNA Translation in H4 Neuroglioblastoma Cells. [Related pubchem assays: 1829 (Project Summary), 1814 (Primary HTS)]; assay type: functional
[2] = Luminescence Cell-Based Dose Response HTS to Identify Activators of Luciferase Translation or Activity in H4 […] Cells. [Related pubchem assays: 1829 (Project Summary), 1814 (Primary HTS)]; assay type: functional
[3] = tested on: H4; test: Luminescence Cell-Based Dose Response HTS to Identify Activators of 5'UTR Stem-Loop Driven Prion Protein mRNA Translation in H4 Neuroglioblastoma Cells. [Related pubchem assays: 1829 (Project Summary), 1814 (Primary HTS)]; assay type: functional; settings: Homo sapiens
[4] = tested on: Vero; test: cells; assay type: functional; settings: Chlorocebus sabaeus
[5] = target: T1, Short transient receptor potential channel 4 (Mus musculus, UniProt Q9QUQ5); test: mouse TRPC4 channel inhibitors, dose response, cell-based, HEK293 TRPC4/mu-opioid, Fluo-4 calcium (AID 434942); assay type: functional;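 note: potency of inhibitors blocking the TRPC4 calcium response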
T1 sequence (Q9QUQ5 whole entry): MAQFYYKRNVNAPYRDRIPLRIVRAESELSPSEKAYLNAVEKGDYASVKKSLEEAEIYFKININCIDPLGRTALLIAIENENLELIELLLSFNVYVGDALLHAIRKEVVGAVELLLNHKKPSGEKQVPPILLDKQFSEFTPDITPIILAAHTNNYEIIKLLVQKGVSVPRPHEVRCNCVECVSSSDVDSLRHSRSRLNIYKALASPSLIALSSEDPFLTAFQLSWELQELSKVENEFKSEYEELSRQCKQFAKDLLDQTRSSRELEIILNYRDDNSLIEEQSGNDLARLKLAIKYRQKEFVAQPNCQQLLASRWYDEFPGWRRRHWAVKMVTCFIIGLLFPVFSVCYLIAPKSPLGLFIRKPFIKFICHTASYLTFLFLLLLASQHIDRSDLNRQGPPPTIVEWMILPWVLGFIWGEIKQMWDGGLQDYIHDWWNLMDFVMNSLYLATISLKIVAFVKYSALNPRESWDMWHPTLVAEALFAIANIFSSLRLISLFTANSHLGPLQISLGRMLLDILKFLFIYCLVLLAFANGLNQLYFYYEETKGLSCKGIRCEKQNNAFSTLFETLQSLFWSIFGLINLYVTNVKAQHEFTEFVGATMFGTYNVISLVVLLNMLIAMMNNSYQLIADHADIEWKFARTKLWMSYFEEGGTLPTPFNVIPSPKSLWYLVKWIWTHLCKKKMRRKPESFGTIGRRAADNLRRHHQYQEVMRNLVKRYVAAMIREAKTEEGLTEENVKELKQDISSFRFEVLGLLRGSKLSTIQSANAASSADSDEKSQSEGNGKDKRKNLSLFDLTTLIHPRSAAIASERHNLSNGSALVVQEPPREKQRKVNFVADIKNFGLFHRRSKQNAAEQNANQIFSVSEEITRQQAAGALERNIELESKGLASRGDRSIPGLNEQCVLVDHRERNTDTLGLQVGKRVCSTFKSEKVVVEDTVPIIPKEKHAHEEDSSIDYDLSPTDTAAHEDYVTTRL

[6] = tested on: INS1; test: beta cell apoptosis inhibitors, cytokine rescue, dose response, luminescence, retest (AID 449756); assay type: functional, cell-based; settings: Rattus norvegicus;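 note: cell death triggered by IL-1 beta plus TNF-alpha plus IFN-gamma mixture; protective hits raise ATP signal compared with cytokine alone wells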
[7] = target: Protein Wnt-3a (Mus musculus, UniProt P27467); test: Wnt3a-driven reporter signaling inhibition, dose response, selectivity assay for Gli-SUFU antagonist project, Wnt-LIGHT cells, luminescence (AID 651570); assay type: functional; settings: read-out: IC50_Mean;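 note: Wnt-LIGHT reporter cells stimulated with conditioned medium from Wnt3a-producing cells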
Sequence of Protein Wnt-3a (P27467 whole entry): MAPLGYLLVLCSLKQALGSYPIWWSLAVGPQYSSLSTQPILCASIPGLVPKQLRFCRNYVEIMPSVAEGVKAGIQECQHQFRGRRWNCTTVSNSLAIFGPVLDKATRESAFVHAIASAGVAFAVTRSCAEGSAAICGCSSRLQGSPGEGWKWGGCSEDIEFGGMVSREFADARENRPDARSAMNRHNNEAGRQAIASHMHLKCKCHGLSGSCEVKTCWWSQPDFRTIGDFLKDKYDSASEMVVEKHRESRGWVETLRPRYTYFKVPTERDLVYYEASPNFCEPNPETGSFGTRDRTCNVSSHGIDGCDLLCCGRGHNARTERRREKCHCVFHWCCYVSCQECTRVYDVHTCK

[8] = target: T2, Galanin receptor type 3 (Homo sapiens, UniProt O60755); test: Fluorescence-based cell-based primary high throughput dose response assay to identify antagonists of the Galanin Receptor 3 (GalR3).; assay type: functional
T2 sequence (O60755 whole entry): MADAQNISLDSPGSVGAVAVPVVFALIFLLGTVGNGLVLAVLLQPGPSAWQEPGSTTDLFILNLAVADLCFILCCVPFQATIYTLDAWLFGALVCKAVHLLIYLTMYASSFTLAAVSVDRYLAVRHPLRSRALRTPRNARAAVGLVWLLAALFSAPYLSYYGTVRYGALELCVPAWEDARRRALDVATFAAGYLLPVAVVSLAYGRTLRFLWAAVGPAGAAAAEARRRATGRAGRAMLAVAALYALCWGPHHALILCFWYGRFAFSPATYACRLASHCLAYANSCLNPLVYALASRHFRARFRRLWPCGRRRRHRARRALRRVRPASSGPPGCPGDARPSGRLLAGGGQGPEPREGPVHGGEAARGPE

[9] = cells; assay type: functional, cell-based; settings: HEK-CNG
[10] = target: T3, COUP transcription factor 2 (Homo sapiens, UniProt P24468); test: Luminescence-based cell-based high throughput dose response assay to identify inhibitors of COUP-TFII (NR2F2).; assay type: functional;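 note: HEK293 cells transiently cotransfected with COUP-TFII expression vector and reporter; luciferase reporter luminescence driven by COUP-TFII from the pX2-168 reporter plasmid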
T3 sequence (P24468 whole entry): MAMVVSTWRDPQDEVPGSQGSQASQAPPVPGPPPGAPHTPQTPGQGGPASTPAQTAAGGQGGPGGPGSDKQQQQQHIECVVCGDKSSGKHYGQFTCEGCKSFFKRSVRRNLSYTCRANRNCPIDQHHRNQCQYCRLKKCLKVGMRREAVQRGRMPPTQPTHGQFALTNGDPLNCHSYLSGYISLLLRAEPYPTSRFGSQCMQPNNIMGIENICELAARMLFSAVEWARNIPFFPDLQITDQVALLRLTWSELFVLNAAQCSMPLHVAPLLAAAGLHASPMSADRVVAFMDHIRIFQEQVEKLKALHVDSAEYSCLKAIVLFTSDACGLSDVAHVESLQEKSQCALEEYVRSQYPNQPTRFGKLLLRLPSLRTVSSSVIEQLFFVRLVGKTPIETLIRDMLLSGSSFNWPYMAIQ

[11] = target: Beta-2 adrenergic receptor (Homo sapiens, UniProt P07550); test: beta2AR agonists driving receptor internalization, dose response, cell-based, FAP fluorogen, flow cytometry, cherry pick 1 (AID 588763); assay type: functional
Sequence of Beta-2 adrenergic receptor (P07550 whole entry): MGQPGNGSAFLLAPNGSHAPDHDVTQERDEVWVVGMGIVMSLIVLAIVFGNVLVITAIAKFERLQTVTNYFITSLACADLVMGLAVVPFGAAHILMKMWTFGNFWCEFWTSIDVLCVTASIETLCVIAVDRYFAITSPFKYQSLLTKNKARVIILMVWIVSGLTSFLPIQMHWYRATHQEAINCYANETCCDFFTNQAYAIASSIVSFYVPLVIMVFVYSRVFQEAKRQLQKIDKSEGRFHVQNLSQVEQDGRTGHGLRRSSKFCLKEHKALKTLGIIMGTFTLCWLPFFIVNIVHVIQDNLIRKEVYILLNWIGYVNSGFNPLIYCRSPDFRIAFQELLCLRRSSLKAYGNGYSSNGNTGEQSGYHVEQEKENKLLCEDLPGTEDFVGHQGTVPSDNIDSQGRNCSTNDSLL

[12] = target: Voltage-gated inwardly rectifying potassium channel KCNH2 (Homo sapiens, UniProt Q12809); settings: Potency;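 note: confirmatory quantitative high-throughput screen measuring inhibition of hERG channel activity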
Sequence of Voltage-gated inwardly rectifying potassium channel KCNH2 (Q12809 whole entry): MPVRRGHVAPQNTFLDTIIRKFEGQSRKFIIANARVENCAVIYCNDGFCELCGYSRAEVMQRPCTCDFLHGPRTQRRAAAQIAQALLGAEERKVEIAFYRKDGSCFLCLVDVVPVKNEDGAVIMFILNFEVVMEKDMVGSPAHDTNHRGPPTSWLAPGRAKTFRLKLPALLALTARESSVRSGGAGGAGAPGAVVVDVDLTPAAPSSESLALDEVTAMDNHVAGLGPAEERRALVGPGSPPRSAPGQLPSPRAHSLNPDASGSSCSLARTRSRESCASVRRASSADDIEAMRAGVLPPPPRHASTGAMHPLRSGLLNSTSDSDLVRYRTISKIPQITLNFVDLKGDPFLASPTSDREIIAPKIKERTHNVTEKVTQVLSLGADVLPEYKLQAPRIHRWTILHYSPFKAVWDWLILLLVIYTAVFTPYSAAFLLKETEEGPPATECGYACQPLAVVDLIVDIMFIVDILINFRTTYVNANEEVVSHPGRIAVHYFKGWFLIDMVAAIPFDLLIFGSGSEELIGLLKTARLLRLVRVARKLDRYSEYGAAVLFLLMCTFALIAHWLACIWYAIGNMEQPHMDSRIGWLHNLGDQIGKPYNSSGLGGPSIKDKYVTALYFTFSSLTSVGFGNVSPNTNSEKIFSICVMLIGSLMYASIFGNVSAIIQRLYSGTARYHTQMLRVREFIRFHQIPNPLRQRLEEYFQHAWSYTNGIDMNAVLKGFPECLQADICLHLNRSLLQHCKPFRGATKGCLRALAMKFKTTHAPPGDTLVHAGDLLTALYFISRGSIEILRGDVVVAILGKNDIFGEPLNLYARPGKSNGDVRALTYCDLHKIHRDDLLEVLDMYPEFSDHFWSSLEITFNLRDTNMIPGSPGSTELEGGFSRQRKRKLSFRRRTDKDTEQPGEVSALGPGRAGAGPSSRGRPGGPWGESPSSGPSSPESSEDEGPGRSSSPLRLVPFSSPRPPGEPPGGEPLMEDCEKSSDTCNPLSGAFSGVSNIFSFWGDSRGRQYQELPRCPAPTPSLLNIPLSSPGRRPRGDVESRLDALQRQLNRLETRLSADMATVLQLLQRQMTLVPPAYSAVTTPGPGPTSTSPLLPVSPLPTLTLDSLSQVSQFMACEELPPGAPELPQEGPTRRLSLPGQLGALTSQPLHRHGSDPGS

[13] = cells; assay type: functional, cell-based
[14] = target: G-protein coupled receptor 55 (Homo sapiens, UniProt Q9Y2T6); test: GPR55 antagonists blocking LPI-driven arrestin recruitment, primary screen, imaging, U2OS, beta-arrestin-GFP, LPI agonist (AID 2013); assay type: functional;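 note: antagonist potency measured as reduced agonist-driven arrestin aggregation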
Sequence of G-protein coupled receptor 55 (Q9Y2T6 whole entry): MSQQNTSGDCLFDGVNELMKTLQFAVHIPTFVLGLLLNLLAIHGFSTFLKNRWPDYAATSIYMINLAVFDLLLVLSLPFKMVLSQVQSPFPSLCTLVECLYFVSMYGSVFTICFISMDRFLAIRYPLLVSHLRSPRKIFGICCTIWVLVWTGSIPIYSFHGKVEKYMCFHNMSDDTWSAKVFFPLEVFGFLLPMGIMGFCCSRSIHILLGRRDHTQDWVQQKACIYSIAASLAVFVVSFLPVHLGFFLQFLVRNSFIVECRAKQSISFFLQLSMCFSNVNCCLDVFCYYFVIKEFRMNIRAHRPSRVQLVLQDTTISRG

[15] = cells; assay type: functional, cell-based; remark: listed apart in the source
[16] = THP-1 cell cytotoxicity, dose response, cytotoxicity control for non-replicating M. tuberculosis project (AID 489025); assay type: functional
[17] = target: T4, Cysteine protease ATG4B (Homo sapiens, UniProt Q9Y4P1); assay type: functional;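 note: Fluorescence-based dose-response confirmation assay measuring inhibition of ATG4B activity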
T4 sequence (Q9Y4P1 whole entry): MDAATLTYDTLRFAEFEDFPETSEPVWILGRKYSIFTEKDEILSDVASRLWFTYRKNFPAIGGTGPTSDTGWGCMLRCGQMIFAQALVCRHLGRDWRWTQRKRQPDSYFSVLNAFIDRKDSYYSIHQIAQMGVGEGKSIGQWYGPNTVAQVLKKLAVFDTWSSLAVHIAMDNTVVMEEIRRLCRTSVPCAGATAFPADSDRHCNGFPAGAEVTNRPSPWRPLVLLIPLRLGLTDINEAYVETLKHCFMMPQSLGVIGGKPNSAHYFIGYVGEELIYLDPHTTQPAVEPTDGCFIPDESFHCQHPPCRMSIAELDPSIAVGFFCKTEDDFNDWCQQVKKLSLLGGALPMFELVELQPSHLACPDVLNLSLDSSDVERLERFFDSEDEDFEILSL

[18] = target: Phospholipase A2 (Homo sapiens, UniProt P04054); assay type: functional;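 note: confirmatory dose-response counterscreen on phospholipase A2, testing hits that came from an ultra-high-throughput screen for ATG4B inhibitors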
Sequence of Phospholipase A2 (P04054 whole entry): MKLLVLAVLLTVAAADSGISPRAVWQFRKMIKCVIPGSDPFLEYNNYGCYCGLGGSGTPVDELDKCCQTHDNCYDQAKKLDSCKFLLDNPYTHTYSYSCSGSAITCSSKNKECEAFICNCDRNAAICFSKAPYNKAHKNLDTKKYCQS

[19] = target: T5, High affinity choline transporter 1 (Homo sapiens, UniProt Q9GZV3); test: CHT inhibitors, dose response, cell-based, 5-point CRC, membrane potential dye (AID 504840); assay type: functional
T5 sequence (Q9GZV3 whole entry): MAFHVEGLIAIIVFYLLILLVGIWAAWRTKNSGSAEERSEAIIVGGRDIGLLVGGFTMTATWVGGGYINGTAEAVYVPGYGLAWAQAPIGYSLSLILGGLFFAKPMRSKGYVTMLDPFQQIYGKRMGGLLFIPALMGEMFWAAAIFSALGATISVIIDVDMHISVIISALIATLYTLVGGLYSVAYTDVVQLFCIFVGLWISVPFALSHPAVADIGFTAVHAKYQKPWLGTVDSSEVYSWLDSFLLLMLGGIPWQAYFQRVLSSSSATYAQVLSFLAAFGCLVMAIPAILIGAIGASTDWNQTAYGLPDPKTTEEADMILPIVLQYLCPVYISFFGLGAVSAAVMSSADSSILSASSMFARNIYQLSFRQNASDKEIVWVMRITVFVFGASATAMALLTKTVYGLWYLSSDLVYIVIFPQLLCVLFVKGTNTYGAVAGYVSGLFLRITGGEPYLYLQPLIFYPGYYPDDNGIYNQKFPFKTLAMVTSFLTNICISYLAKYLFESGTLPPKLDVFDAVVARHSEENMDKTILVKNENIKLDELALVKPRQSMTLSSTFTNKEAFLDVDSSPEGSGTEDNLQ

[20] = tested on: H9c2; test: cells; assay type: functional, cell-based; settings: Rattus norvegicus, H9c2, Myocardium;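 note: confirmatory concentration-response retest of ultra-high-throughput screening hits for modulation of myocardial damage; cell death induced by hydrogen peroxide oxidative stress; compound pretreatment for 60 min then peroxide exposure for 2 h; potency is for protecting the cells against peroxide damage rather than for killing them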
[21] = target: Melanocortin receptor 4 (Homo sapiens, UniProt P32245); test: MC4R antagonist potency on cAMP, dose response, cell-based, TR-FRET, biased antagonists (AID 602298); assay type: functional;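 note: antagonist potency against agonist-stimulated cAMP production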
Sequence of Melanocortin receptor 4 (P32245 whole entry): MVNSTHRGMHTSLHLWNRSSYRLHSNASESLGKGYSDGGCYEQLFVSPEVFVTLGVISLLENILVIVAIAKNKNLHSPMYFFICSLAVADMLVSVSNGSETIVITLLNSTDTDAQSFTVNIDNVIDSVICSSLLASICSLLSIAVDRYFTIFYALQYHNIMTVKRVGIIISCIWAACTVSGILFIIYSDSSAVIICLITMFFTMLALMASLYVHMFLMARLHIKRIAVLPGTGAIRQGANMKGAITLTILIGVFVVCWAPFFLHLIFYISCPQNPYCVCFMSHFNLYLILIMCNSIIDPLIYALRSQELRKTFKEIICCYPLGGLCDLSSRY

[22] = nonselective inhibitors of cellular cAMP signaling, dose response, counter-screen for MC4R biased antagonist project, cell-based, TR-FRET cAMP detection (AID 602305); assay type: functional;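 note: U2OS cells stimulated with forskolin near its EC80 as the cAMP inducer; potency is for inhibition of forskolin-stimulated cAMP signaling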
[23] = target: Beta-galactosidase (Escherichia coli, UniProt Q8VNN2); test: PubChem AID 485352; assay type: functional
Sequence of Beta-galactosidase (Q8VNN2 whole entry): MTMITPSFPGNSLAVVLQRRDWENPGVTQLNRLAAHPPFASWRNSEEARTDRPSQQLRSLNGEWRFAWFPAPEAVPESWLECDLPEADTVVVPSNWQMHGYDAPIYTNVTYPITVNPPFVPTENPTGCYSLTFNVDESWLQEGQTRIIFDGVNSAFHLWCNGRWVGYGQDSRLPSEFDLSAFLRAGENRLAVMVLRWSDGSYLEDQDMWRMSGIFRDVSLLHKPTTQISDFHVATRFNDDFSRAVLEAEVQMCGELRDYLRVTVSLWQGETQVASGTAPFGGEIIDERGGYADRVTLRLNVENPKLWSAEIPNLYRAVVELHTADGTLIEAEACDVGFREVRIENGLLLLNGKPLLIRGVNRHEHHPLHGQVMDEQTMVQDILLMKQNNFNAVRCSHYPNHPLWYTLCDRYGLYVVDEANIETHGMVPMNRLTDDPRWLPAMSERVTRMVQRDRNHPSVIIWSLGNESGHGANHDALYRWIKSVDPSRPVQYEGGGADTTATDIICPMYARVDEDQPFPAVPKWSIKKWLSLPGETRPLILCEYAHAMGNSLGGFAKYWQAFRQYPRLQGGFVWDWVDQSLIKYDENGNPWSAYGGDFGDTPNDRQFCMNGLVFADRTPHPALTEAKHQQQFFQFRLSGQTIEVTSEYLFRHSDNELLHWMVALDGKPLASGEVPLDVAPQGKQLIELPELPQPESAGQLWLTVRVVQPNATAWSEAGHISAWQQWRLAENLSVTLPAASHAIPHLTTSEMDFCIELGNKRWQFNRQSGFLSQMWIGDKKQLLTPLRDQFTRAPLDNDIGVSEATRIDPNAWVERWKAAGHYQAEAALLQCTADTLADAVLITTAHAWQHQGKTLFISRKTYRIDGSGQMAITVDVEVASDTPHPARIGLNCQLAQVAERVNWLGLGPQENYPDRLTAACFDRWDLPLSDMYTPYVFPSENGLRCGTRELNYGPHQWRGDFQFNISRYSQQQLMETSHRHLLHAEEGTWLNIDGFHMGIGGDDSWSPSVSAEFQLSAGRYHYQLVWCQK

[24] = target: T6, Type-1 angiotensin II receptor (Homo sapiens, UniProt P30556); test: AT1 receptor antagonists, dose response, selectivity assay for APJ receptor antagonist project, cell-based, uHTS hits (AID 463214); assay type: functional;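 note: antagonist potency against angiotensin II stimulated AT1 response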
T6 sequence (P30556 whole entry): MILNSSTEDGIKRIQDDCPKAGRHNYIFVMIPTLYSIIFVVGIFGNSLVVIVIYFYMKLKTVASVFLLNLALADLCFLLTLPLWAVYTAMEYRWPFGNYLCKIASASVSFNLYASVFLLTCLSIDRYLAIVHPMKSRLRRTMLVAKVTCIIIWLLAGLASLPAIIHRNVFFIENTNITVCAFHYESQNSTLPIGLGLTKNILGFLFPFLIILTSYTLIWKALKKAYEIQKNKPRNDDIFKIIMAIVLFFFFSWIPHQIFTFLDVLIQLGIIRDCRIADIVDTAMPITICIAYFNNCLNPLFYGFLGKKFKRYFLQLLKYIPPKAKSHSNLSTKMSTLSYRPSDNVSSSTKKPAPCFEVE

[25] = inhibitors of intracellular T. cruzi replication, confirmation, NIH3T3 host cells, beta-gal luminescence (AID 2044); assay type: functional, cell-based;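 note: intracellular parasites grown in NIH/3T3 mouse fibroblasts as host cells; luminescent beta-galactosidase reporter signal from transgenic T. cruzi replicating inside host cells; inhibitors lower the luminescence signal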
[26] = cytotoxicity toward NIH3T3 fibroblasts, dose response, counter-screen, cell-based, ATP luminescence, mouse fibroblasts (AID 2010); assay type: functional;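 note: cells exposed to compound for about 90 hours before reading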
[27] = Luminescence Cell-Based Dose Retest to Confirm Inhibitors of Cancer Stem Cells. [Related pubchem assays (depositor defined):AID2717, AID2721]; assay type: functional; settings: Homo sapiens
[28] = NIH-3T3 fibroblast cytotoxicity, dose response, cytotoxicity control, cell-based, fluorescence, Alamar Blue, secondary assay (AID 2327); assay type: functional;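 note: NIH-3T3 mouse fibroblasts cultured with fluconazole at 8 µg/mL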
[29] = C. albicans growth with fluconazole, confirmation, fluorescence, retest (AID 2467); assay type: functional, cell-based
[30] = target: Glucose-6-phosphate 1-dehydrogenase (Homo sapiens, UniProt P11413); test: human G6PD enzyme inhibitors, dose response, selectivity assay for P. falciparum G6PD inhibitor project, biochemical, fluorescence (AID 504792); assay type: functional
Sequence of Glucose-6-phosphate 1-dehydrogenase (P11413 whole entry): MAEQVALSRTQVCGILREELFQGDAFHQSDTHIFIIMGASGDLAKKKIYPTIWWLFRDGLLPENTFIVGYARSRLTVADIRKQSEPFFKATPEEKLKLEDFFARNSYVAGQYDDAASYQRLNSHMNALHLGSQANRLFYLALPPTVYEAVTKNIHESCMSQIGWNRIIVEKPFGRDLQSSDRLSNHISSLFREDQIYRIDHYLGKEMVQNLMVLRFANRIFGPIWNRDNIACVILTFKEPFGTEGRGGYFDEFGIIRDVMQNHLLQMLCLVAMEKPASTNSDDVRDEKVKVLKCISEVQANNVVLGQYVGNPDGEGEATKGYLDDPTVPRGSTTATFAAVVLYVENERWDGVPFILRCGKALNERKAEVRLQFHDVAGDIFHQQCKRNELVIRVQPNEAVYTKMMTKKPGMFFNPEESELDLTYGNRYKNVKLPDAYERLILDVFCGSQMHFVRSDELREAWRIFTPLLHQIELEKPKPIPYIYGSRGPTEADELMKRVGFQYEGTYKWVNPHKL

O=C(/C=C/c1cccc(O)c1)c1ccc(N2CCOCC2)cc1
EC50 [1]: > 120 µM (not active)
EC50 [2]: 12.3 µM (active)
EC50 [3]: > 120 µM (not active)
CC50 [4]: 12.7 µM (active)

Cc1nc2ccccc2n1Cc1ccc(Br)cc1
EC50 [5]: 668 nM (active)
AC50 [6]: 2.84 µM (active)
IC50 [7]: 369 nM (active)
IC50 [8]: 140 nM (active)
EC50 [9]: > 29.9 µM (inactive)
IC50 [10]: 4.4 µM (active)

CCCCC(=O)Nc1ccc(C(=O)N(CC)c2ccccc2C)cc1
EC50 [11]: 17.5 µM (inactive)

O=[N+]([O-])c1ccccc1-c1ccccc1
AC50 [12]: 39.8 µM (inconclusive)

CNCC(O)c1ccc(OC(=O)C(C)(C)C)c(OC(=O)C(C)(C)C)c1 (configuration not stated) [DIPIVEFRIN HYDROCHLORIDE]
EC50 [11]: 7.13 µM (active)

c1ccc(Cc2nnc(-c3ccccc3)o2)cc1
EC50 [13]: > 350 µM (not active)
IC50 [14]: 3.3 µM (active)
EC50 [15]: 56.3 µM (active)
CC50 [16]: > 40 µM (active)
CC50 [4]: 16.3 µM (active)

Cc1cccc(/N=C/c2cc(Br)cc(Cl)c2O)c1
IC50 [17]: 8.52 µM (active)
IC50 [18]: 12.1 µM (active)
IC50 [19]: 13.3 µM (active)
IC50 [20]: > 79 µM (inactive)

Nc1c(N2CCN(c3ccccc3)CC2)c2ccccc2oc1=O
IC50 [17]: 20.4 µM (inactive)
IC50 [18]: 12.9 µM (active)

CC1=C(C#N)C(c2cn(-c3ccccc3)nc2-c2cccs2)C(C#N)=C(C)N1
EC50 [11]: 0.327 µM (inactive)

COc1ccc(CC(=O)Oc2ccc(F)c(F)c2)cc1S(=O)(=O)N1CCOCC1
IC50 [21]: > 64.6 µM (inactive)
IC50 [22]: > 64.6 µM (inactive)

CCN(CC)c1nc(C)c(C(S)=Nc2cc([N+](=O)[O-])ccc2Cl)s1
EC50 [23]: 24.8 µM (active)
IC50 [24]: > 40 µM (not active)

CN(C)CCNC(=O)COc1ccc(C23CC4CC(CC(C4)C2)C3)cc1
EC50 [25]: 1.83 µM (active)
EC50 [26]: > 60 µM (inconclusive)
AC50 [27]: 4.95 µM (active)
CC50 [4]: 18.5 µM (active)

CCc1cc(-c2[nH]nc(C)c2-c2ccccc2Cl)c(O)cc1OC
EC50 [28]: 6.06 µM (inconclusive)
EC50 [29]: > 38 µM (not active)
IC50 [30]: > 80 µM (inactive)
AC50 [27]: 4.42 µM (active)
